Assay: xn = mol fraction of the nth substance listed
Conditions: 100 kPa, Liquid; for viscosity: Falling or rolling sphere viscometry; for mass density: Vibrating tube method

CCCCC1CCCCC1 [butylcyclohexane] + CCCCCCCCCCCC
Conditions | mass density [kg/m3] | viscosity [mPa·s]
293.15 K, x2 = 0 | 799.34 | 1.305
293.15 K, x2 = 0.1017 | 792.77 | 1.319
293.15 K, x2 = 0.1996 | 786.82 | 1.334
293.15 K, x2 = 0.2951 | 781.36 | 1.348
293.15 K, x2 = 0.4221 | 774.55 | 1.369
293.15 K, x2 = 0.5126 | 769.99 | 1.384
293.15 K, x2 = 0.6256 | 764.59 | 1.404
293.15 K, x2 = 0.7002 | 761.2 | 1.418
293.15 K, x2 = 0.7989 | 756.92 | 1.437
293.15 K, x2 = 0.9012 | 752.7 | 1.457
298.15 K, x2 = 0 | 795.59 | 1.202
298.15 K, x2 = 0.1017 | 789.05 | 1.215
298.15 K, x2 = 0.1996 | 783.12 | 1.228
298.15 K, x2 = 0.2951 | 777.68 | 1.241
298.15 K, x2 = 0.4221 | 770.9 | 1.258
298.15 K, x2 = 0.5126 | 766.35 | 1.272
298.15 K, x2 = 0.6256 | 760.96 | 1.289
298.15 K, x2 = 0.7002 | 757.57 | 1.3
298.15 K, x2 = 0.7989 | 753.3 | 1.318
298.15 K, x2 = 0.9012 | 749.09 | 1.335
303.15 K, x2 = 0 | 791.84 | 1.112
303.15 K, x2 = 0.1017 | 785.32 | 1.123
303.15 K, x2 = 0.1996 | 779.41 | 1.135
303.15 K, x2 = 0.2951 | 773.99 | 1.146
303.15 K, x2 = 0.4221 | 767.22 | 1.162
303.15 K, x2 = 0.5126 | 762.68 | 1.173
303.15 K, x2 = 0.6256 | 757.3 | 1.187
303.15 K, x2 = 0.7002 | 753.92 | 1.197
303.15 K, x2 = 0.7989 | 749.66 | 1.211
303.15 K, x2 = 0.9012 | 745.45 | 1.226
308.15 K, x2 = 0 | 788.07 | 1.033
308.15 K, x2 = 0.1017 | 781.58 | 1.043
308.15 K, x2 = 0.1996 | 775.69 | 1.053
308.15 K, x2 = 0.2951 | 770.28 | 1.063
308.15 K, x2 = 0.4221 | 763.53 | 1.076
308.15 K, x2 = 0.5126 | 759.01 | 1.086
308.15 K, x2 = 0.6256 | 753.64 | 1.1
308.15 K, x2 = 0.7002 | 750.27 | 1.108
308.15 K, x2 = 0.7989 | 746.01 | 1.122
308.15 K, x2 = 0.9012 | 741.81 | 1.137
313.15 K, x2 = 0 | 784.3 | 0.963
313.15 K, x2 = 0.1017 | 777.82 | 0.971
313.15 K, x2 = 0.1996 | 771.96 | 0.98
313.15 K, x2 = 0.2951 | 766.57 | 0.989
313.15 K, x2 = 0.4221 | 759.84 | 1.001
313.15 K, x2 = 0.5126 | 755.32 | 1.009
313.15 K, x2 = 0.6256 | 749.97 | 1.021
313.15 K, x2 = 0.7002 | 746.6 | 1.029
313.15 K, x2 = 0.7989 | 742.35 | 1.041
313.15 K, x2 = 0.9012 | 738.16 | 1.054
318.15 K, x2 = 0 | – | 0.901
318.15 K, x2 = 0.1017 | – | 0.908
318.15 K, x2 = 0.1996 | – | 0.915
318.15 K, x2 = 0.2951 | – | 0.923
318.15 K, x2 = 0.4221 | – | 0.934
318.15 K, x2 = 0.5126 | – | 0.942
318.15 K, x2 = 0.6256 | – | 0.952
318.15 K, x2 = 0.7002 | – | 0.959
318.15 K, x2 = 0.7989 | – | 0.969
318.15 K, x2 = 0.9012 | – | 0.98
